Laboratory results as given in patent publication US7947726B2, “Non-steroidal ligands for the glucocorticoid receptor, and compositions thereof” (The Regents of the University of California, priority 2002, dated 2011).
“And” between values parts separate entries of the source, which are not always exact repeats. Equal entries are not always repeated. Where two headings read alike, the source gives them in different places.

Columns and labels:
[1] = molecular target: T1, glucocorticoid receptor (GR) (Homo sapiens, UniProt P04150); assay: Glucocorticoid Receptor Competitor Assay Kit (Panvera) ligand binding; details: relative binding affinity, dexamethasone = 100; for GR binding RBA (dex = 100): Table 3
T1 construct: purchased Panvera Corp, Madison, Wis
T1 sequence (P04150 1-777): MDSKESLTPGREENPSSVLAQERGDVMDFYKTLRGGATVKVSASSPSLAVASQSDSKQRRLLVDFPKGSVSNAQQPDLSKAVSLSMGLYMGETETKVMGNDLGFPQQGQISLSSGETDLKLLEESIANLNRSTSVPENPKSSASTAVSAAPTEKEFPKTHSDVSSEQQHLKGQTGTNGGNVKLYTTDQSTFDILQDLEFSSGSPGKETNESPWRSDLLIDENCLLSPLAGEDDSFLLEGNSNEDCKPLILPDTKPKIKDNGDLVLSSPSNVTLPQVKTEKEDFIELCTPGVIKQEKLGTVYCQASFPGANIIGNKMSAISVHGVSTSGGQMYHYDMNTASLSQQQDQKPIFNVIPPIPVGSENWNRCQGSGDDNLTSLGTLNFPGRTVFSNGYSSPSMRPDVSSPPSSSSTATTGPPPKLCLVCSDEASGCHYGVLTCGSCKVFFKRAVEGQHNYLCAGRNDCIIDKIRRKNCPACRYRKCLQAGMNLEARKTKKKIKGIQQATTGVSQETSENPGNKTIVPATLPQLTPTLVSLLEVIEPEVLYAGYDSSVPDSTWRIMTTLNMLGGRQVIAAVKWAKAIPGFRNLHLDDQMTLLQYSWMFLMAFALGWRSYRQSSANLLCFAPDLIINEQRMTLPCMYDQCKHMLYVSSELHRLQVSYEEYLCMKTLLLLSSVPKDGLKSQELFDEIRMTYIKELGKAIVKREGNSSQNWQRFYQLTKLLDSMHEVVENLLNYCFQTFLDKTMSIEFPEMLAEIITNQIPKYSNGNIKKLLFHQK
Excerpt: The Glucocorticoid Receptor Competitor Assay Kit (Panvera Corp, Madison, Wis.) was used for ligand binding studies. The recommended room temperature protocol was followed for all assayed ligands.

GR = molecular target: T2, GR (Homo sapiens, UniProt P04150); assay: GRE (TAT3-Luc) activation luciferase assay in CV-1 cells transfected with GR; type: cell-based
T2 construct: expressed in transfected cells; host or cells: CV-1 cells, transient transfection (plasmid a gift of Keith Yamamoto, UCSF)
T2 sequence (P04150 1-777): T1 sequence (P04150 1-777)
Protocol: Cells were plated into tissue culture treated, 96 well flat bottom plates (25,000 cells/well), and incubated for 12 h at 37° C. Cells were then transfected using the Lipofectamine PLUS transfection reagent (Gibco BRL). DNA-lipid complexes of 5 ng GR, 50 ng TAT3-Luc, 7.5 ng β-galactosidase, 1 μL-well PLUS reagent and 0.67 μL-well lipofectamine in 50 μL/well serum free media were added to cells and incubated for 4 h at 37° C. Complexes were removed and hormones diluted in 5% charcoal-stripped FBS were added to the cells, which were then incubated for 24 hours at 37° C. Media was removed and the cells were washed with 100 μL Ca^+2, Mg^+2 free phosphate buffered saline (PBS). Lysis was achieved by adding 50 μL of Passive Lysis Buffer (Promega Corp, Madison, Wis.) and shaking the plate for 15 min. 15 μL of this lysate was then used to assay β-galactosidase activity (β-galactosidase enzyme assay system, Promega Corp., recommended procedures followed). The Luciferase Assay System (Promega Corp.) was used to assay luciferase activity. 100 μL of luciferase assay reagent was added rapidly to the plate and luminescence was measured for 10 ms/well on an Analyst AD Detection System (LJL Biosystems, Sunnyvale, Calif.).

PR = molecular target: T3, PR (Homo sapiens, UniProt P06401); assay: PR activation (max fold activation); type: cell-based; details: Table 4
T3 sequence (P06401 1-933): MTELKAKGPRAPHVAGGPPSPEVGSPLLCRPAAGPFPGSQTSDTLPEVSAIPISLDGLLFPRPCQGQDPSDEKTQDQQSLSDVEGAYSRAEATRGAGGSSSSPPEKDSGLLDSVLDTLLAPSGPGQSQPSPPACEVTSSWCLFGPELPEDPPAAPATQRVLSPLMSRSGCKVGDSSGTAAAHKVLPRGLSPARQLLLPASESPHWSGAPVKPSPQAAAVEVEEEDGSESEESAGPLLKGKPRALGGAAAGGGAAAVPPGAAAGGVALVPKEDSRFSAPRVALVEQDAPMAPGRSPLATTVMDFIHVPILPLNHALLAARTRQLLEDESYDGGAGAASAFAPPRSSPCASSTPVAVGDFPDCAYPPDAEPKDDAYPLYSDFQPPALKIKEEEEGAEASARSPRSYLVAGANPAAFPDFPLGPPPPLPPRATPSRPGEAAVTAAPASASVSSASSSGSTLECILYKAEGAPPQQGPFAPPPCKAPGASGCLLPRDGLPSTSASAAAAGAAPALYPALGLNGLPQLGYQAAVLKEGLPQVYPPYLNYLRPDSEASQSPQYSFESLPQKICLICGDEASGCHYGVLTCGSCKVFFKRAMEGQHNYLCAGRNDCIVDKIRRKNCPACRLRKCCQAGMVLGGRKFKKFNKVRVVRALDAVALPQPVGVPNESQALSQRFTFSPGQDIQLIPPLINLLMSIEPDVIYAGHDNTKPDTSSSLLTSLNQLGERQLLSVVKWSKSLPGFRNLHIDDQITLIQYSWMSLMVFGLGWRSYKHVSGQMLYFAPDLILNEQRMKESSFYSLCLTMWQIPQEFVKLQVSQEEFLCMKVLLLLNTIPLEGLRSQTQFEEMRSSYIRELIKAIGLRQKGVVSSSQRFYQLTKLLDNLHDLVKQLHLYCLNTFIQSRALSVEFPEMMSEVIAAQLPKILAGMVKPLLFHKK

Coll A = Coll A repression; type: cell-based; details: Table 5; for Emax: read-out: Repression Coll A % max repression; for EC50: read-out: Repression Coll A pot (EC50)
[2] = Table 4, read-out: GR pot (EC50)

| GR Binding RBA (dexamethasone = 100) ([1]; Table 1) | GR binding RBA (dex = 100) [1] | EC50 (GR; Table 1, read-out: GR pot(EC50)) | GRE activation max fold activation (GR; Table 4) | EC50 (GR; [2]) | PR max fold activation (PR) | EC50 (Coll A) | Compound | Emax (Coll A) |
| --- | --- | --- | --- | --- | --- | --- | --- | --- |
| 50 | 103 | 125 nM | 95 ± 23 | 130 ± 43 nM | 144 ± 32 | 6.9 nM | Cc1cc(O)cc(C)c1C(O)C1CCCC2=Cc3c(cnn3-c3ccc(F)cc3)CC21C (stereo not drawn) [Compound 227, 4-{[1-(4-Fluoro-phenyl)-4a-methyl-4,4a,5,6,7,8-hexahydro-1H-benzo[f]indazol-5-yl]-hydroxy-methyl}-3,5-dimethyl-phenol] | 75% |
|  | 110 |  | 92 ± 18 | 149 ± 91 nM |  | 8.1 nM | CC12Cc3cnn(-c4ccc(F)cc4)c3C=C1CCCC2C(O)c1cccc2[nH]ccc12 (stereo not drawn) [Compound 237, [1-(4-Fluoro-phenyl)-4a-methyl-4,4a,5,6,7,8-hexahydro-1H-benzo[f]indazol-5-yl]-(1H-indol-4-yl)-methanol] | 75% |
|  |  |  | 86 ± 4 and 112 ± 75 | 251 nM and 230 nM | 155 ± 32 and 109 ± 10 | 27 nM | CC12Cc3cnn(-c4ccc(F)cc4)c3C=C1CCCC2C(O)c1ccsc1 (stereo not drawn) [Compound 238, [1-(4-Fluoro-phenyl)-4a-methyl-4,4a-5,6,7,8-hexahydro-1H-benzo[f]indazol-5-yl]-thiophen-3-yl-methanol] | 68% |
